Assays:
Format in all cases: in vivo, human
[1] = system: open soars on their feet; assay: topical treatment of open sores on the feet; settings: person, composition applied to the wound twice a day for 10 days
From the text: A person is suffering from open soars on their feet. A composition containing copper-zinc malonate is applied to the wound twice a day for 10 days. Healing time is reduced.

[2] = system: 6 inch laceration to their right forearm; assay: topical treatment of a forearm laceration; settings: person; emulsion composition applied three times a day for 1 week
From the text: A person is suffering from 6 inch laceration to their right forearm. An emulsion composition suitable for treatment of skin containing an effective amount of copper-zinc malonate active ingredient is applied to their laceration three times a day for 1 week.

[3] = system: pressure ulcer; assay: topical treatment of pressure ulcers in a diabetic patient
From the text: A diabetic is suffering from a stage I pressure ulcer characterized by non-blanchable erythema on intact skin. A gel composition suitable for treatment of skin containing an effective amount of copper-zinc malonate active ingredient is routinely applied to the stage I pressure ulcer twice daily.
A diabetic is suffering from a stage II pressure ulcer characterized by partial skin loss involving the epidermis, dermis, or both. The lesion is superficial and presents clinically as a shallow center. A liquid composition suitable for treatment of skin containing an effective amount of copper-zinc malonate active ingredient is applied to the shallow center four times a day for 2 months.
A diabetic is suffering from a stage III pressure ulcer characterized by full thickness skin loss involving damage or necrosis of subcutaneous tissue that extends down to, but not through, underlying fascia. The sore presents clinically as a deep crater. A liquid composition suitable for treatment of skin containing an effective amount of one or more copper-zinc malonate active ingredients is applied to the crater four times a day for 1 month.
A diabetic is suffering from a stage IV pressure ulcer characterized by full thickness skin loss with extensive destruction, and tissue necrosis. A liquid composition suitable for treatment of skin containing an effective amount of copper-zinc malonate active ingredient is applied to the dying tissue four times a day for 1 month.

[4] = system: bee sting characterized by pain and swelling; assay: topical treatment of a bee sting; settings: child; liquid composition containing 0.05% active ingredient, four times a day for 2 days
From the text: A child is suffering from a bee sting characterized by pain and swelling. A liquid composition suitable for treatment of skin containing 0.05% copper-zinc malonate active ingredient is applied to the sting four times a day for 2 days.

[5] = system: third degree burns on their left wrist and stomach; assay: topical treatment of third degree burns; settings: person; liquid composition applied four times a day for 1 month
From the text: A person truck accident victim is suffering from third degree burns on their left wrist and stomach. A liquid composition suitable for treatment of skin containing an effective amount of copper-zinc malonate active ingredient is applied to the third degree burn four times a day for 1 month.

[6] = liquid composition applied four times a day for 1 month

Substance: copper-zinc malonate
- healing time [1]: reduced
- healing and time necessary for the wound to close [2]: promotes healing and decreases the time necessary for the wound to close
- stage I pressure ulcer ([3]; gel composition applied twice daily): reduced or eliminated
- stage III pressure ulcer [3, 6]: reduced or eliminated
- stage IV pressure ulcer [3, 6]: reduced or eliminated
- stage II pressure ulcer ([3]; liquid composition applied four times a day for 2 months): reduced or eliminated
- bee sting [4]: reduced or eliminated
- burnt wrist and stomach, healing time [5]: improve, and healing time is reduced

Reference: patent publication US7867522B2, “Method of wound/burn healing using copper-zinc compositions” (JR Chem, LLC, priority 2006, dated 2011)
